Experiments:
[1] = chemical stability in aqueous solutions; assay type: physicochemical; details: over broad pH range
[2] = stability on incubation with human liver extracts; assay type: in vitro ADME
[3] = stability on incubation with rat liver extracts; assay type: in vitro ADME
[4] = target: T1, recombinant 15-PGDH (Homo sapiens, UniProt P15428); experiment: inhibition of recombinant 15-PGDH; assay type: biochemical
T1 sequence (P15428 1-266): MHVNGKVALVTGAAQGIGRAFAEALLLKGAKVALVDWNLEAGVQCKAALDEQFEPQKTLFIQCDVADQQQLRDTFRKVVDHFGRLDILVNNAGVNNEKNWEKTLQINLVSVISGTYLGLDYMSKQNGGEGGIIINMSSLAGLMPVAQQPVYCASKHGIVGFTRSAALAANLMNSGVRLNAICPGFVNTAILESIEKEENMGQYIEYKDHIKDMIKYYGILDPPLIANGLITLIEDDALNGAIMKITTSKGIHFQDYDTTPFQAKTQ

[5] = system: mice; experiment: toxicity after IP injection into mice; details: IP into mice at 50 mg/kg body weight
[6] = system: PGE2 production by cell lines; experiment: PGE2 production by cell lines; assay type: cell-based
[7] = stability on incubation with mouse liver extracts; assay type: in vitro ADME
[8] = system: mice with ischemic AKI; experiment: renal ischemia-reperfusion injury model: renal function (serum creatinine, NGAL, KIM-1); assay type: in vivo; details: IRI-30 min, 3 doses of 5 mg/kg, 24 hours reperfusion
Experimental: (§1) Mice were anesthetized with isoflurane using a vaporizer and placed on a heating pad to maintain their body temperature at 37° C. Both renal arteries were identified through dorsal incisions and clamped for 20, 30, 35, or 37 minutes. Reperfusion was confirmed visually upon release of the clamps. Surgical wounds were closed, and mice were administered 1 mL of saline i.p. The mice were kept in a warm incubator until they regained consciousness and were allowed to recover with ad libitum access to food and water. […] Serum and kidney tissue were collected 24 hours after renal IRI.
Renal function was assessed by determining the serum levels of creatinine (KB02-H1; Arbor Assays), Lipocalin-2 (NGAL; MLCN20; R&D Systems), and kidney injury molecule-1 (KIM-1; MKM100; R&D Systems) after reperfusion for 24 h.

[9] = system: HMGB1 and proinflammatory cytokines; experiment: renal IRI model: HMGB1 and cytokine levels; assay type: in vivo; details: mice, 3 doses 5 mg/kg
Experimental: as §1
Inflammatory cytokine mRNA and protein levels were measured by real-time PCR and ELISA, respectively. Kidney tissue and serum were harvested after reperfusion for 24 h. Total RNA was extracted from frozen kidney tissue using TRIzol reagent (15596018; Invitrogen), according to the manufacturer's protocol. RNA was converted to cDNA using oligo-dT primers. IL-17, TNF-α, and […] levels were determined by real-time PCR with SYBR green PCR Master Mix and the primers listed in Table 1. For ELISA, frozen kidney tissues were homogenized in phosphate buffer. Serum IL-17 (M1700; R&D Systems), TNF-α (MTAOOB; R&D Systems), and IL-10β (MLBOOC; R&D Systems) were measured using commercial ELISA kits according to the manufacturer's instructions.

[10] = system: PGE2 receptors (EP1, EP2, EP3 and EP4) and adenosine receptor (A2A); experiment: renal IRI model: PGE2 receptors (EP1-EP4) and adenosine A2A receptor levels; assay type: in vivo, mice; details: kidney tissue, IRI mice
Experimental: as §1
PGE2 receptors (EP1, EP2, EP3 and EP4) and adenosine receptor (A2A) mRNA levels were determined by real-time PCR with SYBR green PCR Master Mix and the primers listed in Table 1. Their protein levels were determined by western blotting assay and immunofluorescence analysis.

[11] = system: renal arterioles in the outer medulla; experiment: renal vasodilatation in the outer medulla (α-SMA-positive arteriole area); assay type: in vivo, mice; details: IRI mice; α-SMA staining
Experimental: as §1
To quantify vasodilation, the inner arteriole area of the outer medulla was determined using α-SMA-stained sections. After counterstaining with Mayer's hematoxylin, the inner area of α-SMA-positive vessels in the outer medulla (×25) was measured using ImageJ. The results are expressed as average areas of renal arteries outer medulla.

[12] = system: mice with ischemic AKI; experiment: survival and body weight over 7 days after renal IRI; assay type: in vivo; details: bilateral IRI 30 minutes, 5 mg/kg i.p. before and twice daily over 7 days, POD7
Experimental: (A) Experimental setup for toxicity. Ischemic AKI induced by bilaterally clamping the renal arteries for 30 minutes, followed by reperfusion. […] (n=10 per group). (B, C) Survival curves and body weight over 7 days. Kaplan-Meier analysis of survival stratified by AKI stage. Data are means±SEM. *P<0.05 vs. corresponding BI30_vehicle.

[13] = system: mice with ischemic AKI; experiment: renal IRI model: necrotic and apoptotic cell death in the outer medulla; assay type: in vivo
Experimental: as §1
To evaluate necrosis, 5-μm-thick paraffin sections were stained with H&E. Tubular injury was scored semi quantitatively according to a scoring system by a pathologist who examined at least 20 separate fields (×400) in the outer medulla, which is the zone most sensitive to ischemic injury. The scoring system was as follows: 0, no damage; 1, patchy isolated unicellular necrosis; 2, tubular necrosis <25%; 3, tubular necrosis 25-50%; and 4, tubular necrosis >50%. At least 20 consecutive high-power fields (magnification, ×400) per section were scored by two operators blind to the details of the experiment. To analyze the frequency of apoptosis, 5-μm-thick paraffin sections were subjected to terminal deoxynucleotidyl transferase-mediated dUTP nick-end labeling (TUNEL) assay (APT110; Millipore) according to the manufacturer's protocol. TUNEL-positive cells were counted in at least five separate fields (×640 magnification) in the outer medulla, and the apoptosis index (%, number of apoptosis cells/total number of cells) was calculated using GENASIS software.

## CCCC[S+]([O-])c1sc2nc(-c3nccs3)cc(-c3cnc(C)n3C)c2c1N (stereo not drawn) [formula (VII)]
[1]
  chemical stability in aqueous solutions: chemically stable
[2]
  chemical stability when incubated with human liver extracts: chemically stable
[3]
  chemical stability when incubated with rat liver extracts: chemically stable
[4]
  concentration at which recombinant 15-PGDH is inhibited: 3 nM
[5]
  immediate toxicity over 24 hours: no immediate toxicity
[6]
  concentration at which PGE2 production by cell lines is increased: 20 nM
[7]
  chemical stability when incubated with mouse liver extracts: chemically stable

## CCCCC[C@H](O)/C=C/[C@H]1[C@H](O)CC(=O)[C@@H]1C/C=C\CCCC(=O)O [PGE2, reference compound]
[8]
  renal protection from IRI (serum NGAL, creatinine, KIM-1): less effective for renal protection

## CCCCC[C@H](O)/C=C/[C@H]1[C@H](O)CC(=O)[C@@H]1CCCCCCC(=O)O [PGE1, reference compound]
[8]
  renal protection from IRI (serum NGAL, creatinine, KIM-1): less effective for renal protection

## COc1ccc2c(c1)c(CC(=O)O)c(C)n2C(=O)c1ccc(Cl)cc1 [indomethacin, reference compound]
[9]
  induction of inflammatory cytokines: increased induction of inflammatory cytokines
[9]; kidney tissue, western blot
  increase of HMGB1 compared to the IRI-vehicle group: 50%
[10]
  EP4 mRNA: reduced
  increase of levels of mRNA for EP1: 40%
[8]
  renal protection from IRI (serum NGAL, creatinine, KIM-1): significantly aggravated IRI
[11]
  renal arteriole area in the outer medulla: significantly decreased
[12]
  reduced survival vs vehicle control: 25%
[13]; 3 doses 5 mg/kg i.p., POD1, vs IRI-vehicle
  tissue congestion in the outer medulla (gross pathology): worsened
[13]; 3 doses 5 mg/kg, POD1
  renal injury (histopathology, tubular injury): further exacerbated renal injury

Reference: patent US20250325524A1, “COMPOSITIONS AND METHODS FOR TREATING RENAL INJURY” (CASE WESTERN RESERVE UNIVERSITY, priority 2018, published 2025)
